In ChEMBL document CHEMBL5338716, “Synthesis and anti-trypanosomal evaluation of novel N-branched acyclic nucleoside phosphonates bearing 7-aryl-7-deazapurine nucleobase” (Eur J Med Chem, 2022):

Key:
[1] = Binding affinity to Trypanosoma brucei […] assessed as inhibition constant
[2] = Selectivity index, ratio of IC50 for human NHDF cells to EC50 for Trypanosoma brucei brucei; assay type: functional
[3] = Cytotoxicity against human NHDF cells assessed as cell growth inhibition; assay type: toxicity, cell-based
[4] = Cytotoxicity against human HepG2 cells assessed as cell growth inhibition; assay type: toxicity, cell-based
[5] = Cytotoxicity against human HeLa S3 cells assessed as cell growth inhibition; assay type: toxicity, cell-based
[6] = Cytotoxicity against human HL-60 cells assessed as cell growth inhibition; assay type: toxicity, cell-based
[7] = Cytotoxicity against human CCRF-CEM cells assessed as cell growth inhibition; assay type: toxicity, cell-based
[8] = test system: Trypanosoma brucei brucei; assay: Antitrypanosomal activity against Trypanosoma brucei brucei assessed as reduction in parasite growth by cell-based assay; assay type: functional, organism-based
[9] = Selectivity index, ratio of EC50 for human MRC5 cells to EC50 for Trypanosoma brucei brucei; assay type: functional

Row | SMILES | Ki [1] | Selectivity Index [2] | IC50 [3] | IC50 [4] | IC50 [5] | IC50 [6] | IC50 [7] | EC50 [8] | Ratio EC50 [9]
1 | Nc1ncnc2c1c(-c1ccccc1)cn2CCN(CCO)CCP(=O)(O)O | 14.1 µM | – | – | – | – | – | – | – | –
2 | COc1ccc(-c2cn(CCN(CCO)CCP(=O)(O)O)c3ncnc(N)c23)cc1 | 2.25 µM | – | – | – | – | – | – | – | –
3 | CCOC(=O)[C@H](Cc1ccccc1)NP(=O)(CCN(CCO)CCn1cc(-c2ccc(OC)cc2)c2c(N)ncnc21)N[C@@H](Cc1ccccc1)C(=O)OCC | – | 3.8 | 13.2 µM | > 20 µM | > 20 µM | > 20 µM | 6.2 µM | 3.47 µM | –
4 | COc1ccc(-c2cn(CCN(CCC#N)CCP(=O)(O)O)c3ncnc(N)c23)cc1 | 2.2 µM | – | – | – | – | – | – | – | –
5 | N#CCCN(CCn1cc(-c2ccccc2)c2c(N)ncnc21)CCP(=O)(O)O | 1.73 µM | – | – | – | – | – | – | – | –
6 | Nc1ncnc2c1ccn2[C@@H]1O[C@H](CO)[C@@H](O)[C@H]1O [TUBERCIDIN] | ~330 µM | 0.4 | 0.07 µM | 0.05 µM | 0.1 µM | 0.14 µM | 0.11 µM | 0.16 µM | 4
7 | CCOC(=O)[C@H](Cc1ccccc1)NP(=O)(CCN(CC#N)CCn1cc(-c2ccc(OC)cc2)c2c(N)ncnc21)N[C@@H](Cc1ccccc1)C(=O)OCC | – | 3.5 | 7.9 µM | > 20 µM | > 20 µM | 6.7 µM | 4.2 µM | 2.24 µM | –
8 | COc1ccc(-c2cn(CCN(CC#N)CCP(=O)(O)O)c3ncnc(N)c23)cc1 | 10.9 µM | – | – | – | – | – | – | – | –
9 | CCOC(=O)[C@H](Cc1ccccc1)NP(=O)(CCN(CC#N)CCn1cc(-c2ccccc2)c2c(N)ncnc21)N[C@@H](Cc1ccccc1)C(=O)OCC | – | 6.5 | 10.4 µM | > 20 µM | 11 µM | 8.7 µM | 5.9 µM | 1.61 µM | –
10 | CCOC(=O)[C@H](Cc1ccccc1)NP(=O)(CCN(CCn1cc(-c2ccc(OC)cc2)c2c(N)ncnc21)CCP(=O)(N[C@@H](Cc1ccccc1)C(=O)OCC)N[C@@H](Cc1ccccc1)C(=O)OCC)N[C@@H](Cc1ccccc1)C(=O)OCC | – | 16.4 | 9.5 µM | 6.6 µM | 5.4 µM | 4.6 µM | 4 µM | 0.58 µM | –
11 | CCOC(=O)[C@H](Cc1ccccc1)NP(=O)(CCN(CCC#N)CCn1cc(-c2ccc(OC)cc2)c2c(N)ncnc21)N[C@@H](Cc1ccccc1)C(=O)OCC | – | 2.4 | 16.4 µM | > 20 µM | > 20 µM | > 20 µM | > 20 µM | 6.81 µM | –
12 | CCOC(=O)[C@H](Cc1ccccc1)NP(=O)(CCN(CCn1cc(-c2ccccc2)c2c(N)ncnc21)CCP(=O)(N[C@@H](Cc1ccccc1)C(=O)OCC)N[C@@H](Cc1ccccc1)C(=O)OCC)N[C@@H](Cc1ccccc1)C(=O)OCC | – | 7.4 | 8.9 µM | 6.3 µM | 4.9 µM | 4.2 µM | 3.8 µM | 1.21 µM | –
13 | N#CCN(CCn1cc(-c2ccccc2)c2c(N)ncnc21)CCP(=O)(O)O | 9.5 µM | – | – | – | – | – | – | – | –
14 | Nc1ncnc2c1c(-c1ccccc1)cn2CCN(CCP(=O)(O)O)CCP(=O)(O)O | 10.7 µM | – | – | – | – | – | – | – | –
15 | CCOC(=O)[C@H](Cc1ccccc1)NP(=O)(CCN(CCC#N)CCn1cc(-c2ccccc2)c2c(N)ncnc21)N[C@@H](Cc1ccccc1)C(=O)OCC | – | >4.8 | > 20 µM | 14.1 µM | > 20 µM | 8.6 µM | 5.6 µM | 4.19 µM | –
16 | CCOC(=O)[C@H](Cc1ccccc1)NP(=O)(CCN(CCO)CCn1cc(-c2ccccc2)c2c(N)ncnc21)N[C@@H](Cc1ccccc1)C(=O)OCC | – | 10 | 18.9 µM | 14.7 µM | > 20 µM | > 20 µM | 6.7 µM | 1.9 µM | –
17 | COc1ccc(-c2cn(CCN(CCP(=O)(O)O)CCP(=O)(O)O)c3ncnc(N)c23)cc1 | 3.97 µM | – | – | – | – | – | – | – | –
